Laboratory results as given in patent US7045300B2, “Lectin protein prepared from Maackia fauriei, process for preparing the same and the use thereof” (priority 2001, dated 2006).

Columns and labels:
[1] = system: lectin MFA; test: Hemagglutination-inhibition assay of the lectin MFA with monosaccharide, disaccharide and glycoprotein; format: biochemical, Maackia fauriei; set-up: key to Minimum erythrocyte agglutination inhibition concentration: —: The negative sign (−) means that there is no hemagglutination-inhibition; settings: for Minimum erythrocyte agglutination inhibition concentration: 6.25% mouse erythrocyte, lectin MFA diluted 128-fold; for inhibition of agglutination: starting from 1 mg/ml solution of each carbohydrate, 128-fold diluted lectin MFA
Protocol: In order to confirm that the lectin MFA of the present invention recognizes N-acetylneuraminic acid, hemagglutination-inhibition reaction was performed using monosaccharide, disaccharide and glycoprotein. 50 μl of a 128-fold diluted solution of lectin MFA in 0.15 M NaCl and 50 μl of each 1 mg/ml solution of monosaccharides (e.g., β-D-glucose, D-galactose, L-fucose, D-mannose, N-acetylneuraminic acid, N-glycolylneuraminic acid, N-acetyl-D-glucosamine, N-acetyl-D-galactosamine and methyl-α-D-glucopyranoside), disaccharide (e.g., α-lactose, β-lactose, D-lactose, β-gentiobiose, maltose, D-raffinose or D-cellobiose) and glycoprotein (e.g., fetuin and asialofetuin) in 0.15 M NaCl were added to the each well of a 96-well microplate. After the reaction for one hour or more at room temperature, 50 μl of the erythrocyte suspended in 0.15 M NaCl was added to each well and reacted for one hour at room temperature.
The negative sign (−) means that there is no hemagglutination-inhibition. […] NeuGc and NeuAc represent N-glycolylneuraminic acid and N-acetylneuraminic acid, respectively.

[2] = system: lectin MFA; test: as above; format: biochemical, Maackia fauriei; settings: at 10 mM
[3] = system: fetuin; test: Comparison of binding specificity of lectins, hemagglutination inhibition by fetuin; format: biochemical; settings: 6.25% human B type erythrocyte
Protocol: (§1) The binding specificity of the MFA with Wheat germ agglutinin, Maackia amurensis aggulutinin, Limulus polyphemus lectin, and Sambucus niger agglutinin which have already been reported to recognize N-acetylneuraminic acid was determined by a hemagglutination inhibition response using 10 mM of N-acetylneuraminic acid and N-acetylneuraminic acid-binding fetuin.
(§2) The negative sign (−) means no hemagglutination inhibition up to 10 mM

[4] = Comparison of binding specificity of lectins, hemagglutination inhibition by N-acetylneuraminic acid; format: biochemical; settings: 6.25% human B type erythrocyte; tested up to 10 mM
Protocol: as §1, §2

Row | Molecule | Minimum erythrocyte agglutination inhibition concentration ([1]; dash = no inhibition) | also measured
1 | OC[C@H]1O[C@@H](O[C@H]2[C@H](O)[C@@H](O)[C@@H](O)O[C@@H]2CO)[C@H](O)[C@@H](O)[C@H]1O [α-lactose] | — | 
2 | CC(=O)N[C@H]1C(O)O[C@H](CO)[C@H](O)[C@@H]1O (stereo partly drawn) [N-acetyl-D-galactosamine] | — | 
3 | CC(=O)N[C@H]1C(O)O[C@H](CO)[C@@H](O[C@@H]2O[C@H](CO)[C@H](O)[C@H](O)[C@H]2O)[C@@H]1O (some centres unmarked) [N-acetylactosamine] |  | hemagglutination inhibition [2]: did not show hemagglutination inhibition
4 | OC[C@H]1O[C@@H](O[C@H]2[C@H](O)[C@@H](O)C(O)O[C@@H]2CO)[C@H](O)[C@@H](O)[C@H]1O (stereo partly drawn) [D-lactose] | — | 
5 | OC[C@H]1O[C@@H](OC[C@H]2O[C@@H](O)[C@H](O)[C@@H](O)[C@@H]2O)[C@H](O)[C@@H](O)[C@@H]1O [β-gentiobiose] | — | 
6 | OC[C@H]1O[C@@H](O)[C@H](O)[C@@H](O)[C@@H]1O [β-D-glucose] | — | 
7 | Wheat germ agglutinin |  | Minimum hemagglutination-inhibition concentration, Fetuin [3]: 207 µM; Minimum hemagglutination-inhibition concentration, N-acetylneuraminic acid [4]: — (The negative sign (−) means no hemagglutination inhibition up to 10 mM)
8 | C[C@H](O)[C@@H](O)[C@@H](O)[C@H](O)C=O [L-fucose] | — | 
9 | O=C[C@@H](O)[C@@H](O)[C@H](O)[C@H](O)CO [D-mannose] | — | 
10 | OC[C@H]1O[C@@H](O[C@H]2[C@H](O)[C@@H](O)[C@H](O)O[C@@H]2CO)[C@H](O)[C@@H](O)[C@H]1O [β-lactose] | — | 
11 | OC[C@H]1O[C@H](O[C@H]2[C@H](O)[C@@H](O)[C@H](O)O[C@@H]2CO)[C@H](O)[C@@H](O)[C@@H]1O [Maltose] | — | 
12 | CC(=O)N[C@H]1C(O)O[C@H](CO)[C@@H](O)[C@@H]1O (stereo partly drawn) [N-acetyl-D-glucosamine] | — | 
13 | O=C[C@H](O)[C@@H](O)[C@@H](O)[C@H](O)CO [D-galactose] | — | 
14 | OC[C@H]1O[C@@H](O[C@H]2[C@H](O)[C@@H](O)[C@H](O)O[C@@H]2CO)[C@H](O)[C@@H](O)[C@@H]1O [D-cellobiose] | — | 
15 | OC[C@H]1O[C@H](OC[C@H]2O[C@H](O[C@]3(CO)O[C@H](CO)[C@@H](O)[C@@H]3O)[C@H](O)[C@@H](O)[C@@H]2O)[C@H](O)[C@@H](O)[C@H]1O [D-raffinose] | — | 
16 | CO[C@H]1O[C@H](CO)[C@@H](O)[C@H](O)[C@H]1O [Methyl-α-D-glucopyranoside] | — | 
17 | CC(=O)N[C@H]1[C@H]([C@H](O)[C@H](O)CO)OC(O)(C(=O)O)C[C@@H]1O (some centres unmarked) [N-acetylneuraminic acid] |  | Minimum erythrocyte agglutination inhibition concentration [1]: 10.0 mM; inhibition of agglutination [1]: inhibited the agglutination
18 | O=C(CO)N[C@H]1[C@H]([C@H](O)[C@H](O)CO)OC(O)(C(=O)O)C[C@@H]1O (some centres unmarked) [N-glycolylneuraminic acid] | — | 
19 | Fetuin: glycoprotein containing N-acetylneuraminic acid (protein, UniProt P12763 19-359, looked up) Alpha-2-HS-glycoprotein: IPLDPVAGYKEPACDDPDTEQAALAAVDYINKHLPRGYKHTLNQIDSVKVWPRRPTGEVYDIEIDTLETTCHVLDPTPLANCSVRQQTQHAVEGDCDIHVLKQDGQFSVLFTKCDSSPDSAEDVRKLCPDCPLLAPLNDSRVVHAVEVALATFNAESNGSYLQLVEISRAQFVPLPVSVSVEFAVAATDCIAKEVVDPTKCNLLAEKQYGFCKGSVIQKALGGEDVRVTCTLFQTQPVIPQPQPDGAEAEAPSAVPDAAGPTPSAAGPPVASVVVGPSVVAVPLPLHRAHYDLRHTFSGVASVESSSGEAFHVGKTPIVGQPSIPGGPVRLCPGRIRYFKI |  | Minimum erythrocyte agglutination inhibition concentration [1]: 0.0052 mM; inhibition of agglutination [1]: inhibited the agglutination
20 | Asialofetuin: glycoprotein tested as hemagglutination inhibitor (protein, UniProt P12763 19-359, looked up, desialylated) Alpha-2-HS-glycoprotein: IPLDPVAGYKEPACDDPDTEQAALAAVDYINKHLPRGYKHTLNQIDSVKVWPRRPTGEVYDIEIDTLETTCHVLDPTPLANCSVRQQTQHAVEGDCDIHVLKQDGQFSVLFTKCDSSPDSAEDVRKLCPDCPLLAPLNDSRVVHAVEVALATFNAESNGSYLQLVEISRAQFVPLPVSVSVEFAVAATDCIAKEVVDPTKCNLLAEKQYGFCKGSVIQKALGGEDVRVTCTLFQTQPVIPQPQPDGAEAEAPSAVPDAAGPTPSAAGPPVASVVVGPSVVAVPLPLHRAHYDLRHTFSGVASVESSSGEAFHVGKTPIVGQPSIPGGPVRLCPGRIRYFKI | — | 
